Measured values taken from ChEMBL document CHEMBL3991601, “The target landscape of clinical kinase drugs” (Science, 2017).
pKd: −log10 of the molar value. Activity calls are given as the source filed them.

How the values were obtained:
[1] = target: STE20-like serine/threonine-protein kinase (Homo sapiens, UniProt Q9H2G2)
[2] = target: T1, Mitogen-activated protein kinase kinase kinase kinase 2 (Homo sapiens, UniProt Q12851)
T1 sequence (Q12851 whole entry): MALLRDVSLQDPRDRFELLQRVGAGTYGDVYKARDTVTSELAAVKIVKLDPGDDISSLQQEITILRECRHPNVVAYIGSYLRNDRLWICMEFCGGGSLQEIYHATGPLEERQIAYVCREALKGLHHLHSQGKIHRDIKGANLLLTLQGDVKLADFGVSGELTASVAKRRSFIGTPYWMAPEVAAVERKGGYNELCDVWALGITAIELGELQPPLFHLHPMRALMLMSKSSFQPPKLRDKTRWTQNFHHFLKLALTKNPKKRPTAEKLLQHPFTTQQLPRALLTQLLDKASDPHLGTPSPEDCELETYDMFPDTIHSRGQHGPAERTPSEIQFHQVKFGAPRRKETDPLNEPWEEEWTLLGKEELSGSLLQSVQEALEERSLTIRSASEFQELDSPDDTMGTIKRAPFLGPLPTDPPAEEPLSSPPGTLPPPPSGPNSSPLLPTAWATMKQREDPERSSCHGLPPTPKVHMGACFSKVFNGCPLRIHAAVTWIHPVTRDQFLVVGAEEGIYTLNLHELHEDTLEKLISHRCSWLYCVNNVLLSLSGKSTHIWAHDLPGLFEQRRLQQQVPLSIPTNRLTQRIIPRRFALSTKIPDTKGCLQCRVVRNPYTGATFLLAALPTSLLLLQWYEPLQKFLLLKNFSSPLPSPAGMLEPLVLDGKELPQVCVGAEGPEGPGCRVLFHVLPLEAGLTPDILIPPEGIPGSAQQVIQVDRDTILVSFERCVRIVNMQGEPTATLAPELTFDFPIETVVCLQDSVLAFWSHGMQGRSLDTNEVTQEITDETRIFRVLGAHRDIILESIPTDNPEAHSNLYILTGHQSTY

[3] = target: Serine/threonine-protein kinase/endoribonuclease IRE1 (Homo sapiens, UniProt O75460)
Sequence of Serine/threonine-protein kinase/endoribonuclease IRE1 (O75460 whole entry): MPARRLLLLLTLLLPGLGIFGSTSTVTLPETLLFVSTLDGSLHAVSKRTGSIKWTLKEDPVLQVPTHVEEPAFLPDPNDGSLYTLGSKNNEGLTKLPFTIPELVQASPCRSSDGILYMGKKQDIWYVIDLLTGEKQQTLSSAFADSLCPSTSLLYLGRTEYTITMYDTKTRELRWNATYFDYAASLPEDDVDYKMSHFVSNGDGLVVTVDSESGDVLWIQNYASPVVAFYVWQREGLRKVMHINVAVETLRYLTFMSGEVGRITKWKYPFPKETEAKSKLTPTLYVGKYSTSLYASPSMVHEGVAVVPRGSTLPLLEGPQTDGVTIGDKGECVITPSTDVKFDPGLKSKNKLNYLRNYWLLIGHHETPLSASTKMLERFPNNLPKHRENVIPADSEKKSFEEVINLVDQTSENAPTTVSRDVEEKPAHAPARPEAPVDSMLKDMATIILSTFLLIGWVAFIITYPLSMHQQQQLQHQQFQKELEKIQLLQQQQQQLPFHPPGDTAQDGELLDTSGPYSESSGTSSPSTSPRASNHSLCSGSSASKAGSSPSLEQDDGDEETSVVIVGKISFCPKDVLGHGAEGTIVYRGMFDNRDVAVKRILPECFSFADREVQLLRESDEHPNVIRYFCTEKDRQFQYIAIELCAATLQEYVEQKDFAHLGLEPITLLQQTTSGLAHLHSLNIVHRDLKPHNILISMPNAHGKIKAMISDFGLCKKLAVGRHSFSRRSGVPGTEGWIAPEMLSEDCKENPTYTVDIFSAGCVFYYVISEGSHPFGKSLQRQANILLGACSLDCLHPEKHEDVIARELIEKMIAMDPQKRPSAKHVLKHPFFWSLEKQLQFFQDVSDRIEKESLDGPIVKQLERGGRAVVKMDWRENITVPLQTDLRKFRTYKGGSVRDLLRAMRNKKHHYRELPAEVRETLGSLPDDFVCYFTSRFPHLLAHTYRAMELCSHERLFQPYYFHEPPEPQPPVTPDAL

[4] = target: Cyclin-dependent kinase 6 (Homo sapiens, UniProt Q00534)
Sequence of Cyclin-dependent kinase 6 (Q00534 whole entry): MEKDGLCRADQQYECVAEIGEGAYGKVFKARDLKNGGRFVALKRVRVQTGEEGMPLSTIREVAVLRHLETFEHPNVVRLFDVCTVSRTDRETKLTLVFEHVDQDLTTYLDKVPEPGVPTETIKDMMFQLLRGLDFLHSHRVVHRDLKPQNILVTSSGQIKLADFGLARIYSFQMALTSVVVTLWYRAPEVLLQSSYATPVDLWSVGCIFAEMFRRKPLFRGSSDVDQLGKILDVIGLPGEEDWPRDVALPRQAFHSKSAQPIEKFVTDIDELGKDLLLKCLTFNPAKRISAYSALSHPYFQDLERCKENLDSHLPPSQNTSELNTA

[5] = target: T2, Rab-like protein 3 (Homo sapiens, UniProt Q5HYI8)
T2 sequence (Q5HYI8 whole entry): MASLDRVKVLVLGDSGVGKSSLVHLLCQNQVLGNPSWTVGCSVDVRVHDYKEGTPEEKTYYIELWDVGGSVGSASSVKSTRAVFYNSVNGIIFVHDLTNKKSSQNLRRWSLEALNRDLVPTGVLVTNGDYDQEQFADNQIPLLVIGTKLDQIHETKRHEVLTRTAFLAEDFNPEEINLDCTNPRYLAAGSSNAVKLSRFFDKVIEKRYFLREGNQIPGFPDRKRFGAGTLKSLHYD

[6] = target: T3, Succinate--CoA ligase [ADP-forming] subunit beta, mitochondrial (Homo sapiens, UniProt Q9P2R7)
T3 sequence (Q9P2R7 whole entry): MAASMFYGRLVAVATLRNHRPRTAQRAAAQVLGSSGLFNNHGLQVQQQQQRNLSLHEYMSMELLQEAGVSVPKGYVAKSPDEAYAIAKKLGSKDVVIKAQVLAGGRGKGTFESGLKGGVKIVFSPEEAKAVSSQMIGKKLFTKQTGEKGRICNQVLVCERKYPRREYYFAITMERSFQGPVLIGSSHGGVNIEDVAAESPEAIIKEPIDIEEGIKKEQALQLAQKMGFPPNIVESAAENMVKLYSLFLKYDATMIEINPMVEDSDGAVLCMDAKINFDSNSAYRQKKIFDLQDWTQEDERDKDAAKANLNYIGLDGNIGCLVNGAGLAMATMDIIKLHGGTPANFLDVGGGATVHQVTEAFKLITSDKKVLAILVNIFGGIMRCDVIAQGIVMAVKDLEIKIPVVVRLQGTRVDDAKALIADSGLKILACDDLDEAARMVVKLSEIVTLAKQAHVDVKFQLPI

[7] = target: T4, Serine/threonine-protein kinase Nek1 (Homo sapiens, UniProt Q96PY6)
T4 sequence (Q96PY6 whole entry): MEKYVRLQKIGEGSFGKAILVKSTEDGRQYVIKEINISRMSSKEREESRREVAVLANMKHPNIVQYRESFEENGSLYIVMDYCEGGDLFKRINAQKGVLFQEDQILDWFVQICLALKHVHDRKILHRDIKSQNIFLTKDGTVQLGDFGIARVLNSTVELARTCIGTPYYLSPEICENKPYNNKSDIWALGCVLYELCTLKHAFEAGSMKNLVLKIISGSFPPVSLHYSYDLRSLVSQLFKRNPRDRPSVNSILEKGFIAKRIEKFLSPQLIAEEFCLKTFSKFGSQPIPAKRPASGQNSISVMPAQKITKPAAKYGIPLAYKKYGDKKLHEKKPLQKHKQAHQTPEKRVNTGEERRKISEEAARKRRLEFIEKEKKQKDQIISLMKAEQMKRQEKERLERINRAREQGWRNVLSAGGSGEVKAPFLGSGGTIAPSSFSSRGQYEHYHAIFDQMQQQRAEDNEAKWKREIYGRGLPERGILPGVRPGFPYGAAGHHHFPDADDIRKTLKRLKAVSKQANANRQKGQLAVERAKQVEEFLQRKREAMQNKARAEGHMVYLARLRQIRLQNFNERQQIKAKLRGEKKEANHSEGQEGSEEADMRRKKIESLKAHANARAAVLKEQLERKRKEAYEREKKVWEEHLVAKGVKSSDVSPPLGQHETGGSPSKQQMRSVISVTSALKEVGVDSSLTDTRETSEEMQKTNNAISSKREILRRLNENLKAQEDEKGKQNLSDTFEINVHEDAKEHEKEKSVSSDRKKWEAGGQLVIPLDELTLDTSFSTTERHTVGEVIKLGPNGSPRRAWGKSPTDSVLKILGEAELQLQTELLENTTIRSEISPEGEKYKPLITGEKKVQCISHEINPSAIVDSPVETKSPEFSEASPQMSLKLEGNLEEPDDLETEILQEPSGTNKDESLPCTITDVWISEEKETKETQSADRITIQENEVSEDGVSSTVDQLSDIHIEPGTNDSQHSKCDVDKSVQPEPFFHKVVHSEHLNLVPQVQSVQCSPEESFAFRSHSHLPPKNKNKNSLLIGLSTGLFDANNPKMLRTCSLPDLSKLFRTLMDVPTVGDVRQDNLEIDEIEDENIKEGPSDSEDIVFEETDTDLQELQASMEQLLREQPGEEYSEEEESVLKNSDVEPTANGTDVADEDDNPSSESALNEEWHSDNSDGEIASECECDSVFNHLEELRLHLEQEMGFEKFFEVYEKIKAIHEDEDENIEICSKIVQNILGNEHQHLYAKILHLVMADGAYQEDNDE

[8] = target: Obg-like ATPase 1 (Homo sapiens, UniProt Q9NTK5)
Sequence of Obg-like ATPase 1 (Q9NTK5 whole entry, looked up): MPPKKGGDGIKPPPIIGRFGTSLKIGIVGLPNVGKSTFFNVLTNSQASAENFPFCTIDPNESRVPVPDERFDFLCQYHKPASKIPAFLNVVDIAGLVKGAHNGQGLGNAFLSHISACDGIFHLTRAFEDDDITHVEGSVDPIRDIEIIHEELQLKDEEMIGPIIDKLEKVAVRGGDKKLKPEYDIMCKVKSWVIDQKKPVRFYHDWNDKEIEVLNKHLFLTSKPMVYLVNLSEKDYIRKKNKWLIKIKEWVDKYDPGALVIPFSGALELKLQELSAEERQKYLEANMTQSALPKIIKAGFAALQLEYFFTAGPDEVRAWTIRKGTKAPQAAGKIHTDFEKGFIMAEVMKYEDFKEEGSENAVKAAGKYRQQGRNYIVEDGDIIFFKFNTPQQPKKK
Further: in the data inactive means no Kd found up to 30 µM.

Sequence of STE20-like serine/threonine-protein kinase (Q9H2G2 whole entry): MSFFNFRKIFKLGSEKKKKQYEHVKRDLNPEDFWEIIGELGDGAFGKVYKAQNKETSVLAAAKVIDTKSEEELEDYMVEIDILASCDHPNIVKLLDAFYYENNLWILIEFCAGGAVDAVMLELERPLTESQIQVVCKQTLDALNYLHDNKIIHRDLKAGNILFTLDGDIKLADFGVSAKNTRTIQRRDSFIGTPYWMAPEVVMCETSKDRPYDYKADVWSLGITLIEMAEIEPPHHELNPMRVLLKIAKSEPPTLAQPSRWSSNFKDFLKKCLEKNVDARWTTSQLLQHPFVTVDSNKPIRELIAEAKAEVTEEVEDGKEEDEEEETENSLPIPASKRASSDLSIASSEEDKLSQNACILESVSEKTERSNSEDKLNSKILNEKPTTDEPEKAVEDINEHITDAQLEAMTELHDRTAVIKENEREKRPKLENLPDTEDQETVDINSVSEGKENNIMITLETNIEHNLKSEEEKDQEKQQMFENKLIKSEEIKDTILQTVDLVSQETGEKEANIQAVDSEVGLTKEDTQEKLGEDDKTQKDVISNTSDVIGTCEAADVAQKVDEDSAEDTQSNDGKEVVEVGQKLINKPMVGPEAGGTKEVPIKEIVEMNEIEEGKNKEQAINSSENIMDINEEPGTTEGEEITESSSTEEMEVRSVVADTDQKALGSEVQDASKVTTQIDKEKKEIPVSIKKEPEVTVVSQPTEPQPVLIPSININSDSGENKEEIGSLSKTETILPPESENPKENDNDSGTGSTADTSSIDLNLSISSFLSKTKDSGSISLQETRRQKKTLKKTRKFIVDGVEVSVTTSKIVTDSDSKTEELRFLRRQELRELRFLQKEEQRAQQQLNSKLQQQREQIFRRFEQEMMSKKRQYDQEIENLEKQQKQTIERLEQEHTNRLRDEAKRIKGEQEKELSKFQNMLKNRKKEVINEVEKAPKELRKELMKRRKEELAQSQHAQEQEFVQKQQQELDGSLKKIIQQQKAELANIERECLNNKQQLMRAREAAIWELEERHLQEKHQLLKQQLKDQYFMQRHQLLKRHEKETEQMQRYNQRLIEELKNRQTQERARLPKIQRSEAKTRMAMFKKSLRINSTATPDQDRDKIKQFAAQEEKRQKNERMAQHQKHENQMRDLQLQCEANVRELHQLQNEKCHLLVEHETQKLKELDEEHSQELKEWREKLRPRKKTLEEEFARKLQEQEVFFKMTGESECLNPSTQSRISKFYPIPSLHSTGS

O=c1[nH]c([C@@H]2CCCN2)nc2c1oc1ccc(Cl)cc12
inactive: Kd [1] > 30 µM | Kd [2] > 30 µM | Kd [3] > 30 µM | Kd [4] > 30 µM | Kd [5] > 30 µM | Kd [6] > 30 µM | Kd [7] > 30 µM

CCN1CCN(Cc2ccc(Nc3ncc(F)c(-c4cc(F)c5nc(C)n(C(C)C)c5c4)n3)nc2)CC1 [ABEMACICLIB]
inactive: Kd [1] > 30 µM | Kd [2] > 30 µM | Kd [3] > 30 µM | Kd [5] > 30 µM | Kd [6] > 30 µM | Kd [7] > 30 µM

CN(C)C/C=C/C(=O)Nc1cc2c(Nc3ccc(F)c(Cl)c3)ncnc2cc1O[C@H]1CCOC1 [AFATINIB]
inactive: Kd [4] > 30 µM | Kd [5] > 30 µM | Kd [8] > 30 µM

COc1cccc(Nc2ncnn3ccc(CN4CC[C@@H](N)[C@H](O)C4)c23)c1 [BMS-690514]
inactive: Kd [2] > 30 µM | Kd [3] > 30 µM | Kd [4] > 30 µM | Kd [5] > 30 µM | Kd [6] > 30 µM | Kd [7] > 30 µM

C[C@@]1(C(=O)Nc2ccc(F)nc2)CCCN1c1nc(Nc2cc(C3CC3)n[nH]2)c2cccn2n1 [BMS-754807]
inactive: Kd [4] > 30 µM | Kd [5] > 30 µM | Kd [6] > 30 µM | Kd [8] > 30 µM

COc1cc2c(Oc3ccc4[nH]c(C)cc4c3F)ncnc2cc1OCCCN1CCCC1 [CEDIRANIB]
inactive: Kd [4] > 30 µM | Kd [6] > 30 µM | Kd [8] > 30 µM

CC[C@@](C)(Nc1ccnc(-c2c[nH]c3ncccc23)n1)C(=O)NCC(F)(F)F [DECERNOTINIB]
inactive: Kd [2] > 30 µM | Kd [3] > 30 µM | Kd [4] > 30 µM | Kd [5] > 30 µM | Kd [6] > 30 µM | Kd [7] > 30 µM
active: Kd [1] 0.058 µM

O=S(=O)(c1cccc2cnccc12)N1CCCNCC1 [FASUDIL]
inactive: Kd [3] > 30 µM | Kd [4] > 30 µM | Kd [6] > 30 µM | Kd [7] > 30 µM | Kd [8] > 30 µM

CCc1nc(C(N)=O)c(Nc2ccc(N3CCC(N4CCN(C)CC4)CC3)c(OC)c2)nc1NC1CCOCC1 [GILTERITINIB]
active: Kd [1] 0.068 µM | Kd [2] 0.244 µM
5.32: pKd [5]
inactive: Kd [3] > 30 µM | Kd [4] > 30 µM | Kd [6] > 30 µM | Kd [7] > 30 µM

C[C@]1(O)C[C@@H](c2nc(-c3ccc4ccc(-c5ccccc5)nc4c3)c3c(N)nccn32)C1 [LINSITINIB]
active: Kd [2] 0.067 µM
inactive: Kd [3] > 30 µM | Kd [4] > 30 µM | Kd [5] > 30 µM | Kd [6] > 30 µM | Kd [7] > 30 µM

O=C(Nc1ccc(OC(F)(F)F)cc1)c1sccc1NCc1ccnc2ccccc12 [OSI-930]
inactive: Kd [1] > 30 µM | Kd [2] > 30 µM | Kd [3] > 30 µM | Kd [4] > 30 µM | Kd [7] > 30 µM

FC(F)(F)c1ccc(CNc2ccc(Cc3c[nH]c4ncc(Cl)cc34)cn2)cn1 [PEXIDARTINIB]
inactive: Kd [1] > 30 µM | Kd [2] > 30 µM | Kd [3] > 30 µM | Kd [4] > 30 µM | Kd [5] > 30 µM | Kd [6] > 30 µM | Kd [7] > 30 µM

CN(c1ncccc1CNc1nc(Nc2ccc3c(c2)CC(=O)N3)ncc1C(F)(F)F)S(C)(=O)=O [PF-00562271]
inactive: Kd [3] > 30 µM | Kd [4] > 30 µM | Kd [5] > 30 µM | Kd [6] > 30 µM | Kd [7] > 30 µM | Kd [8] > 30 µM

Cn1cnc2c(F)c(Nc3ccc(Br)cc3Cl)c(C(=O)NOCCO)cc21 [SELUMETINIB]
inactive: Kd [4] > 30 µM | Kd [5] > 30 µM | Kd [6] > 30 µM | Kd [8] > 30 µM

O=C(O)c1ccc2c(c1)nc(Nc1cccc(Cl)c1)c1ccncc12 [SILMITASERTIB]
inactive: Kd [2] > 30 µM | Kd [3] > 30 µM | Kd [4] > 30 µM | Kd [5] > 30 µM | Kd [6] > 30 µM | Kd [7] > 30 µM
active: Kd [1] 0.22 µM

C=CCN(/C=C1/C(=O)O[C@H](COC)[C@@]2(C)C1=C(O)C(=O)C1=C2[C@H](OC(C)=O)C[C@]2(C)C(=O)CC[C@@H]12)CC=C [SONOLISIB]
inactive: Kd [1] > 30 µM | Kd [2] > 30 µM | Kd [3] > 30 µM | Kd [4] > 30 µM | Kd [5] > 30 µM | Kd [6] > 30 µM | Kd [7] > 30 µM

CN1CCN(c2nc(C3=C(c4c[nH]c5ccccc45)C(=O)NC3=O)c3ccccc3n2)CC1 [SOTRASTAURIN]
inactive: Kd [1] > 30 µM | Kd [2] > 30 µM | Kd [3] > 30 µM | Kd [4] > 30 µM | Kd [5] > 30 µM | Kd [6] > 30 µM | Kd [7] > 30 µM

CC(C)(O)CC(=O)NCCn1ccc2ncnc(Nc3ccc(Oc4cccc(C(F)(F)F)c4)c(Cl)c3)c21 [TAK-285]
inactive: Kd [2] > 30 µM | Kd [3] > 30 µM | Kd [4] > 30 µM | Kd [5] > 30 µM | Kd [6] > 30 µM | Kd [7] > 30 µM

COc1cc2c(N3CCN(C(=O)Nc4ccc(OC(C)C)cc4)CC3)ncnc2cc1OCCCN1CCCCC1 [TANDUTINIB]
inactive: Kd [4] > 30 µM | Kd [5] > 30 µM | Kd [8] > 30 µM

O[C@H]1CC[C@H](Nc2ncc3nc(Nc4c(F)cc(F)cc4F)n([C@H]4CCOC4)c3n2)CC1 [TANZISERTIB]
active: Kd [3] 1.36 µM
inactive: Kd [1] > 30 µM | Kd [2] > 30 µM | Kd [4] > 30 µM | Kd [5] > 30 µM | Kd [6] > 30 µM | Kd [7] > 30 µM
